Measured values: patent US20150105252A1, “SUBSTITUTED PYRAZOLES AS HERBICIDES” (E I DU PONT DE NEMOURS AND COMPANY, priority 2013, published 2015)

Assays:
bluegrass = assay: Test D preemergence; type: in vivo, Poa annua; details: scale 0 to 100
Summary of the method: (§1)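 Visual 0–100 control ratings at 14–21 days in a controlled growth environment. Application preemergence onto silt loam or postemergence onto 2–18 cm seedlings, using a non-phytotoxic solvent formulation with surfactant.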

chickweed = assay: Test D preemergence; type: in vivo, Stellaria media; details: scale 0 to 100
Source text: (§2) Seeds of plant species selected from bluegrass (annual bluegrass, Poa annua), blackgrass (Alopecurus myosuroides), canarygrass (littleseed canarygrass, Phalaris minor), chickweed (common chickweed, Stellaria media), galium (catchweed bedstraw, Galium aparine), bromegrass, downy (downy bromegrass, Bromus tectorum), field poppy (Papaver rhoeas), field violet (Viola arvensis), foxtail, green (green foxtail, Setaria viridis), deadnettle (henbit deadnettle, Lamium amplexicaule), ryegrass, Italian (Italian ryegrass, Lolium multiflorum), kochia (Kochia scoparia), lambsquarters (Chenopodium album), oilseed rape (Brassica napus), pigweed (redroot pigweed, Amaranthus retroflexus), chamomile (scentless chamomile, Matricaria inodora), speedwell (bird's-eye speedwell, Veronica persica), barley, spring (spring barley, Hordeum vulgare), wheat, spring (spring wheat, Triticum aestivum), buckwheat, wild (wild buckwheat, Polygonum convolvulus), mustard, wild (wild mustard, Sinapis arvensis), oat, wild (wild oat, Avena fatua), radish, wild (wild radish, Raphanus raphanistrum), windgrass (Apera spica-venti), Russian thistle (Salsola kali), barley, winter (winter barley, Hordeum vulgare), and wheat, winter (winter wheat, Triticum aestivum) were planted into a silt loam soil and treated preemergence with test chemicals formulated in a non-phytotoxic solvent mixture which included a surfactant.
(§3) At the same time, these species were planted in pots containing Redi-Earth® planting medium (Scotts Company, 14111 Scottslawn Road, Marysville, Ohio 43041) comprising spaghnum peat moss, vermiculite, wetting agent and starter nutrients and treated with postemergence applications of the test chemicals formulated in the same manner. Plants ranged in height from 2 to 18 cm (1- to 4-leaf stage). Treated plants and controls were maintained in a controlled growth environment for 14 to 21 days after which time all species were compared to controls and visually evaluated. Plant response ratings, summarized in Table D, are based on a scale of 0 to 100 where 0 is no effect and 100 is complete control. A dash (-) response means no test result.

foxtail, green = assay: Test D preemergence; type: in vivo, Setaria viridis; details: scale 0 to 100
Source text: as §2, §3

blackgrass = assay: Test D postemergence; type: in vivo, Alopecurus myosuroides; details: scale 0 to 100
Source text: as §2, §3

ryegrass, Italian = assay: Test D postemergence; type: in vivo, Lolium multiflorum; details: scale 0 to 100
Summary of the method: as §1

buckwheat, wild = assay: Test D postemergence; type: in vivo, Polygonum convolvulus; details: scale 0 to 100
Summary of the method: as §1

radish, wild = assay: Test D postemergence; type: in vivo, Raphanus raphanistrum; details: scale 0 to 100
Summary of the method: as §1

corn = assay: Test F preemergence; type: in vivo, Zea mays
Summary of the method: (§4)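 Visual rating 0–100 vs untreated controls (0 = no effect, 100 = complete control) after 14–21 d greenhouse. Pre: seeds in silt loam soil. Post: plants 2–18 cm, 1–4 leaf. Formulation: non-phytotoxic solvent mix + surfactant.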

Surinam grass = assay: Test F preemergence; type: in vivo, Brachiaria decumbens
Source text: (§5) Seeds of plant species selected from corn (Zea mays), soybean (Glycine max), velvetleaf (Abutilon theophrasti), lambsquarters (Chenopodium album), wild poinsettia (Euphorbia heterophylla), pigweed, palmer (palmer pigweed, Amaranthus palmeri), common waterhemp (Amaranthus rudis), surinam grass (Brachiaria decumbens), large crabgrass (Digitaria sanguinalis), crabgrass, Brazil (Brazilian crabgrass, Digitaria horizontalis), fall panicum (Panicum dichotomiflorum), giant foxtail (Setaria faberii), green foxtail (Setaria viridis), goosegrass (Eleusine indica), johnsongrass (Sorghum halepense), common ragweed (Ambrosia elation), barnyardgrass (Echinochloa crus-galli), southern sandbur (Cenchrus echinatus), arrowleaf sida (Sida rhombifolia), Italian ryegrass (Lolium multiflorum), dayflower, VA (Virginia (VA) dayflower, Commelina virginica), field bindweed (Convolvulus arvensis), cocklebur (common cocklebur, Xanthium strumarium), morningglory (Ipomoea coccinea), nightshade (eastern black nightshade, Solanum ptycanthum), kochia (Kochia scoparia), yellow nutsedge (Cyperus esculentus), and hairy beggarticks (Bidens pilosa), were planted into a silt loam soil and treated preemergence with test chemicals formulated in a non-phytotoxic solvent mixture which included a surfactant.
(§6) At the same time, plants from these crop and weed species and also horseweed (Canada horseweed, Conyza canadensis), smartweed (ladysthumb smartweed, Polygonum persicaria), waterhemp_RES1, (ALS & Triazine resistant common waterhemp, Amaranthus rudis), and waterhemp_RES2, (ALS & HPPD resistant common waterhemp, Amaranthus rudis) were treated with postemergence applications of test chemicals formulated in the same manner. Plants ranged in height from 2 to 18 cm for postemergence treatments (1- to 4-leaf stage). Treated plants and controls were maintained in a greenhouse for 14 to 21 days, after which time all species were compared to controls and visually evaluated. Plant response ratings, summarized in Table F, are based on a scale of 0 to 100 where 0 is no effect and 100 is complete control. A dash (-) response means no test result.

barnyardgrass = assay: Test F preemergence; type: in vivo, Echinochloa crus-galli
Source text: as §5, §6

southern sandbur = assay: Test F preemergence; type: in vivo, Cenchrus echinatus
Source text: as §5, §6

field bindweed = assay: Test F preemergence; type: in vivo, Convolvulus arvensis
Source text: as §5, §6

nightshade = assay: Test F preemergence; type: in vivo, Solanum ptycanthum
Summary of the method: as §4

[1] = Preemergence, 31 g ai/ha, scale 0 to 100
[2] = Preemergence, 62 g ai/ha, scale 0 to 100
[3] = Preemergence, 125 g ai/ha, scale 0 to 100
[4] = preemergence, 8 g ai/ha, scale 0 to 100, 100 is complete control
[5] = preemergence, 16 g ai/ha, scale 0 to 100, 100 is complete control

Compound: CCc1cc(C(=O)NCC(F)(F)F)nn1Cc1ccnc(C(F)(F)F)c1 [Compound 78, 5-ethyl-N-(2,2,2-trifluoroethyl)-1-[[(2-trifluoromethyl)-4-pyridinyl]methyl]-1H-pyrazole-3-carboxamide]
- Plant response rating, Bluegrass (bluegrass; 31 g ai/ha): 50
- Plant response rating, Bluegrass (bluegrass; 62 g ai/ha): 80
- Plant response rating, Bluegrass (bluegrass; 125 g ai/ha): 95
- Plant response rating, Bluegrass (bluegrass; 250 g ai/ha): 100
- Plant response rating, Chickweed (chickweed; 31 g ai/ha): 100
- Plant response rating, Chickweed (chickweed; 62 g ai/ha): 100
- Plant response rating, Chickweed (chickweed; 125 g ai/ha): 100
- Plant response rating, Chickweed (chickweed; 250 g ai/ha): 100
- Plant response rating, Foxtail, Green (foxtail, green; 31 g ai/ha): 50
- Plant response rating, Foxtail, Green (foxtail, green; 62 g ai/ha): 100
- Plant response rating, Foxtail, Green (foxtail, green; 125 g ai/ha): 100
- Plant response rating, Foxtail, Green (foxtail, green; 250 g ai/ha): 100
- Blackgrass plant response rating (blackgrass; Postemergence, 31 g ai/ha): 5
- Blackgrass plant response rating (blackgrass; Postemergence, 125 g ai/ha): 30
- Blackgrass plant response rating (blackgrass; Postemergence, 250 g ai/ha): 65
- Blackgrass plant response rating (blackgrass; postemergence, 62 g ai/ha): 10
- Ryegrass, Italian plant response rating (ryegrass, Italian; Postemergence, 31 g ai/ha): 5
- Ryegrass, Italian plant response rating (ryegrass, Italian; Postemergence, 125 g ai/ha): 10
- Ryegrass, Italian plant response rating (ryegrass, Italian; Postemergence, 250 g ai/ha): 45
- Ryegrass, Italian plant response rating (ryegrass, Italian; postemergence, 62 g ai/ha): 5
- Buckwheat, Wild plant response rating (buckwheat, wild; Postemergence, 31 g ai/ha): 50
- Buckwheat, Wild plant response rating (buckwheat, wild; Postemergence, 125 g ai/ha): 65
- Buckwheat, Wild plant response rating (buckwheat, wild; Postemergence, 250 g ai/ha): 70
- Buckwheat, Wild plant response rating (buckwheat, wild; postemergence, 62 g ai/ha): 60
- Radish, Wild plant response rating (radish, wild; Postemergence, 31 g ai/ha): 40
- Radish, Wild plant response rating (radish, wild; Postemergence, 125 g ai/ha): 60
- Radish, Wild plant response rating (radish, wild; Postemergence, 250 g ai/ha): 75
- Radish, Wild plant response rating (radish, wild; postemergence, 62 g ai/ha): 50
- Plant response rating, Corn (corn; [1]): 20
- Plant response rating, Corn (corn; [2]): 65
- Plant response rating, Corn (corn; [3]): 70
- Plant response rating, Corn (corn; [4]): 0
- Plant response rating, Corn (corn; [5]): 10
- Plant response rating, Surinam Grass (Surinam grass; [1]): 50
- Plant response rating, Surinam Grass (Surinam grass; [2]): 75
- Plant response rating, Surinam Grass (Surinam grass; [3]): 100
- Plant response rating, Surinam Grass (Surinam grass; [4]): 20
- Plant response rating, Surinam Grass (Surinam grass; [5]): 20
- Plant response rating, Barnyardgrass (barnyardgrass; [1]): 35
- Plant response rating, Barnyardgrass (barnyardgrass; [2]): 98
- Plant response rating, Barnyardgrass (barnyardgrass; [3]): 100
- Plant response rating, Barnyardgrass (barnyardgrass; [4]): 0
- Plant response rating, Barnyardgrass (barnyardgrass; [5]): 25
- Plant response rating, Southern Sandbur (southern sandbur; [1]): 5
- Plant response rating, Southern Sandbur (southern sandbur; [2]): 80
- Plant response rating, Southern Sandbur (southern sandbur; [3]): 95
- Plant response rating, Southern Sandbur (southern sandbur; [4]): 0
- Plant response rating, Southern Sandbur (southern sandbur; [5]): 0
- Plant response rating, Field Bindweed (field bindweed; [1]): 100
- Plant response rating, Field Bindweed (field bindweed; [2]): 90
- Plant response rating, Field Bindweed (field bindweed; [3]): 95
- Plant response rating, Field Bindweed (field bindweed; [4]): 0
- Plant response rating, Field Bindweed (field bindweed; [5]): 0
- Plant response rating, Nightshade (nightshade; [1]): 95
- Plant response rating, Nightshade (nightshade; [2]): 98
- Plant response rating, Nightshade (nightshade; [3]): 98
- Plant response rating, Nightshade (nightshade; [4]): 0
- Plant response rating, Nightshade (nightshade; [5]): 60

Compound: CCOc1cc(C(=O)NC2CC2)nn1Cc1ccnc(C(F)(F)F)c1 [Compound 189]
- Plant response rating, Bluegrass (bluegrass; 31 g ai/ha): 15
- Plant response rating, Bluegrass (bluegrass; 62 g ai/ha): 50
- Plant response rating, Bluegrass (bluegrass; 125 g ai/ha): 70
- Plant response rating, Bluegrass (bluegrass; 250 g ai/ha): 85
- Plant response rating, Chickweed (chickweed; 31 g ai/ha): 95
- Plant response rating, Chickweed (chickweed; 62 g ai/ha): 100
- Plant response rating, Chickweed (chickweed; 125 g ai/ha): 100
- Plant response rating, Chickweed (chickweed; 250 g ai/ha): 100
- Plant response rating, Foxtail, Green (foxtail, green; 62 g ai/ha): 100
- Plant response rating, Foxtail, Green (foxtail, green; 125 g ai/ha): 100
- Plant response rating, Foxtail, Green (foxtail, green; 250 g ai/ha): 100
- Blackgrass plant response rating (blackgrass; Postemergence, 31 g ai/ha): 10
- Blackgrass plant response rating (blackgrass; Postemergence, 125 g ai/ha): 15
- Blackgrass plant response rating (blackgrass; Postemergence, 250 g ai/ha): 20
- Blackgrass plant response rating (blackgrass; postemergence, 62 g ai/ha): 10
- Ryegrass, Italian plant response rating (ryegrass, Italian; Postemergence, 31 g ai/ha): 10
- Ryegrass, Italian plant response rating (ryegrass, Italian; Postemergence, 125 g ai/ha): 20
- Ryegrass, Italian plant response rating (ryegrass, Italian; Postemergence, 250 g ai/ha): 30
- Ryegrass, Italian plant response rating (ryegrass, Italian; postemergence, 62 g ai/ha): 10
- Buckwheat, Wild plant response rating (buckwheat, wild; Postemergence, 31 g ai/ha): 70
- Buckwheat, Wild plant response rating (buckwheat, wild; Postemergence, 125 g ai/ha): 70
- Buckwheat, Wild plant response rating (buckwheat, wild; Postemergence, 250 g ai/ha): 80
- Buckwheat, Wild plant response rating (buckwheat, wild; postemergence, 62 g ai/ha): 70
- Radish, Wild plant response rating (radish, wild; Postemergence, 31 g ai/ha): 60
- Radish, Wild plant response rating (radish, wild; Postemergence, 125 g ai/ha): 65
- Radish, Wild plant response rating (radish, wild; Postemergence, 250 g ai/ha): 85
- Radish, Wild plant response rating (radish, wild; postemergence, 62 g ai/ha): 60
